# Test results: ChEMBL document CHEMBL1201862, “PubChem BioAssay data set” (2004)
# Calls of active or inactive are those of the source.
# Tests used:
# [1] = test system: Streptococcus sp. 'group A'; experiment: Streptococcus pyogenes SK(-)GAS viability under kanamycin – luminescence, BacTiterGlo, confirmation, counter-screen for streptokinase expression inhibitor project, dose response (AID 1900); assay type: functional, organism-based
# [2] = test system: Streptococcus; experiment: GAS UMAA2166 growth inhibition – luminescence, BacTiterGlo, counter-screen for streptokinase expression inhibitor project, dose response (AID 1915); assay type: functional, organism-based;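 further: potency for reduction of bacterial viability or growth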
# [3] = microbe, parasite or virus in culture; assay type: functional; settings: Mycobacterium tuberculosis
# [4] = target: T1, Streptokinase A (Streptococcus pyogenes serotype M1, UniProt P10520); experiment: viability-normalized secreted streptokinase activity reduction – plasminogen activation absorbance, OD405, dose response (AID 1914); assay type: functional, Streptococcus pyogenes M1 GAS;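 further: secreted streptokinase activity via plasminogen activation per viability signal from cell pellet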
# T1 sequence (P10520 whole entry): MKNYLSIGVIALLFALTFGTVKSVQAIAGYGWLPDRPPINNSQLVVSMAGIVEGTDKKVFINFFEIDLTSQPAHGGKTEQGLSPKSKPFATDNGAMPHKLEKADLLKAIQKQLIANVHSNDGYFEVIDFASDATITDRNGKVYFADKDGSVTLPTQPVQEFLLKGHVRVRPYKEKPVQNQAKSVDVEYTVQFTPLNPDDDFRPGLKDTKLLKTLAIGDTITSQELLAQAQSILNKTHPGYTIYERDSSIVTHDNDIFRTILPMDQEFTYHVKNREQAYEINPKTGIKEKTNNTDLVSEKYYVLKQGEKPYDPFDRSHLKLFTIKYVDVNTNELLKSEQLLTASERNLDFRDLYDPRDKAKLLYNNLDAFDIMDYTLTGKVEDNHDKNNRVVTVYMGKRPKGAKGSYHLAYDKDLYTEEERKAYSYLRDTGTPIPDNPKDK
# [5] = target: T2, Aminopeptidase N (Plasmodium falciparum FcB1/Columbia, UniProt O96935); experiment: malaria alanyl aminopeptidase activity blockers – biochemical, fluorogenic H-Leu-NHMec substrate, 1536-well (AID 1445); design: species or system Plasmodium falciparum 3D7, 3D7
# T2 sequence (O96935 whole entry): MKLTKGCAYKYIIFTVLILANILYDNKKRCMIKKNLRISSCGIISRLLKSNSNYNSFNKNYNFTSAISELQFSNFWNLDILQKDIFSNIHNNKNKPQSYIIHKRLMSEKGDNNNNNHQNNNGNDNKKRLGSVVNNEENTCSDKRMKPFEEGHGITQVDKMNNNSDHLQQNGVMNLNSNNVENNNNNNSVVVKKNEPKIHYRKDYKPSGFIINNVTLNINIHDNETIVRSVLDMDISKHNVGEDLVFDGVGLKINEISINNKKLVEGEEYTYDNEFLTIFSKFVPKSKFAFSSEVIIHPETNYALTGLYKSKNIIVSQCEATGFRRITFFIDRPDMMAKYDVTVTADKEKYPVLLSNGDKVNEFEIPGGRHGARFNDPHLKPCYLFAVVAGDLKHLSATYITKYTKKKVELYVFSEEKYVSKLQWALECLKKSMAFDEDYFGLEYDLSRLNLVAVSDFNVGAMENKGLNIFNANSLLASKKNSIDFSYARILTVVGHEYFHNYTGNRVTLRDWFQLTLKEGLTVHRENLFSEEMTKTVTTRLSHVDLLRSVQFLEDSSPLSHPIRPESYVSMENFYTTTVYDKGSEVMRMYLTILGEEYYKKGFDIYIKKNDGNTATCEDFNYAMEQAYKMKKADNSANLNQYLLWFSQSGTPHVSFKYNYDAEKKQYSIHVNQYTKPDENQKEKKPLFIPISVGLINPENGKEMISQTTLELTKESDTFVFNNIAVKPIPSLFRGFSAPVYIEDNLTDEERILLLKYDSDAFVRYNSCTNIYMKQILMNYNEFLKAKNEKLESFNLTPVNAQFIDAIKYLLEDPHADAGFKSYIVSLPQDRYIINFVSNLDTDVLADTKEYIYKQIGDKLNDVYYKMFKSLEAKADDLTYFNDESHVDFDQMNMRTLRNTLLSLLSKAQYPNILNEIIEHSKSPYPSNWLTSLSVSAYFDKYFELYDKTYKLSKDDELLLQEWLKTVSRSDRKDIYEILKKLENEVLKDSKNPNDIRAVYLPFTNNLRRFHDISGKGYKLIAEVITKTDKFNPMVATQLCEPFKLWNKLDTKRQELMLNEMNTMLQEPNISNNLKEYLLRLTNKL
# [6] = target: Genome polyprotein (dengue virus type 2, UniProt P29990); experiment: flavivirus cap methylation enzyme inhibition – biochemical, confirmation dose response, primary screen (AID 588689); assay type: functional
# [7] = target: T3, High affinity choline transporter 1 (Homo sapiens, UniProt Q9GZV3); experiment: human choline transporter blockers, potency – cell-based, 5-point CRC, membrane potential dye, dose response (AID 504840); assay type: functional
# T3 sequence (Q9GZV3 whole entry): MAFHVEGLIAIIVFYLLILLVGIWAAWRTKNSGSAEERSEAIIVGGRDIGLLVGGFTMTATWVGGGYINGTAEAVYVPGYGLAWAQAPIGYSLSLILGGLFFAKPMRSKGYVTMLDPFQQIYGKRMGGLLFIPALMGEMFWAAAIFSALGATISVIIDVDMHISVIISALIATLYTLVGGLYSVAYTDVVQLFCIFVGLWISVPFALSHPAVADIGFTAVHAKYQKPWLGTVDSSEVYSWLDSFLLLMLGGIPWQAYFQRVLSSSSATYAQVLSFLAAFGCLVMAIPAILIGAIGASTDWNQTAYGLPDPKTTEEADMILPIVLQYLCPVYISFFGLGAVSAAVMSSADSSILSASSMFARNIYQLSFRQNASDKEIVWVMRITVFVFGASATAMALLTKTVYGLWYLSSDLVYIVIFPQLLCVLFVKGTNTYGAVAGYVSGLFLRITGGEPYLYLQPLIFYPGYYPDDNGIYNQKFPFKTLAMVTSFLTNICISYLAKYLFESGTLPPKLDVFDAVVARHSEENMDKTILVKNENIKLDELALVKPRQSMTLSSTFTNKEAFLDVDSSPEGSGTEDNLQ
# [8] = viability of uninfected HEp-2 cells – cell-based, HTS, cytotoxicity control for RSV inhibitor project, dose response (AID 2410); assay type: functional; settings: human respiratory syncytial virus
# [9] = Trypanosoma cruzi growth suppression in host cells – NIH3T3 host cells, beta-gal luminescence, confirmation (AID 2044); assay type: functional, cell-based;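 further: intracellular parasites grown in NIH/3T3 mouse fibroblasts as host cells; luminescent beta-galactosidase reporter signal from transgenic T. cruzi replicating inside host cells; inhibitors lower the luminescence signal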
# [10] = Luminescence Cell-Based Dose Retest to Confirm Inhibitors of Cancer Stem Cells. [Related pubchem assays (depositor defined):AID2717, AID2721]; assay type: functional; settings: Homo sapiens
# [11] = NIH3T3 cell viability loss – ATP luminescence, mouse fibroblasts, counter-screen, dose response (AID 2010); assay type: functional, cell-based;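 further: cells exposed to compound for about 90 hours before reading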
# [12] = target: Cytochrome P450 3A4 (Homo sapiens, UniProt P08684); settings: Potency;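 further: confirmatory qHTS run detecting inhibitors and substrates of CYP3A4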
# [13] = HIV-1 Vif–A3G interaction blockers – biochemical, TR-FRET, GST-Vif 1-94, biotin-A3G peptide, dose response retest, primary screen (AID 1117319); assay type: functional;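 further: TR-FRET signal of purified GST-Vif binding a biotinylated A3G peptide; inhibitors lower the FRET signal by blocking Vif and A3G binding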
# [14] = target: T4, Rac GTPase-activating protein 1 (Homo sapiens, UniProt Q9H0H5); experiment: blockers of MgcRacGAP-driven Rac1 GTP hydrolysis – biochemical, ADP Hunter fluorescence, primary and confirmatory, confirmation (AID 624330); assay type: functional
# T4 sequence (Q9H0H5 whole entry): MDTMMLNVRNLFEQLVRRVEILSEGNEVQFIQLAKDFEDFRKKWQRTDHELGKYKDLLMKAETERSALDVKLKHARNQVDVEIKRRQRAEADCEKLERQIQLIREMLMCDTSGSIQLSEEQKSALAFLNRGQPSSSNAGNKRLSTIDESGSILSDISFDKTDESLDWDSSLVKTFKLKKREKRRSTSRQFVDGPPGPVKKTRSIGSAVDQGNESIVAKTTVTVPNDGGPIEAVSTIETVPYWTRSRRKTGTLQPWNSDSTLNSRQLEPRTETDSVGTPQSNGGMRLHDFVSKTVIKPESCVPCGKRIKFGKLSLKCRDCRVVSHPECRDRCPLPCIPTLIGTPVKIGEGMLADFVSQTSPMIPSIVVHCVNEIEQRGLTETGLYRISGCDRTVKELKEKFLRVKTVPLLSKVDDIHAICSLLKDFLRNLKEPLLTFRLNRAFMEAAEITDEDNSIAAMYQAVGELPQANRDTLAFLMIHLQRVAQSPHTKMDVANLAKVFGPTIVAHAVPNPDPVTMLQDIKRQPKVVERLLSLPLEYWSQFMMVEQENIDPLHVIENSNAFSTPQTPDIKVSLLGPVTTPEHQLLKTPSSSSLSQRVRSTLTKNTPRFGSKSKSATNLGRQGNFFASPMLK
# [15] = HepG2 cell cytotoxicity, dose response, cytotoxicity control for non-replicating M. tuberculosis project (AID 489018); assay type: functional; settings: Mycobacterium tuberculosis
# [16] = cells; assay type: functional
# [17] = THP-1 cell cytotoxicity, dose response, cytotoxicity control for non-replicating M. tuberculosis project (AID 489025); assay type: functional
# [18] = test system: INS1; experiment: INS-1E survival protection against cytokine death – cell-based, luminescence, retest, dose response (AID 449756); assay type: functional; settings: Rattus norvegicus;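 further: cell death triggered by IL-1 beta plus TNF-alpha plus IFN-gamma mixture; protective hits raise ATP signal compared with cytokine alone wells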
# [19] = cells; assay type: functional, cell-based
# [20] = cells; assay type: functional, cell-based; remark: listed apart in the source
# [21] = Vero E6 cell cytotoxicity, dose response, cytotoxicity control for non-replicating M. tuberculosis project, secondary assay (AID 492998); assay type: functional, VeroE6; settings: Vero C1008
# [22] = target: T5, Fatty acid synthase (Homo sapiens, UniProt P49327); experiment: inhibition of human FAS-TE enzyme activity – biochemical, kinetic fluorescence intensity, dose response (AID 624326); assay type: functional;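 further: rate of fluorescence rise from hydrolysis of a fluorogenic O-methyl fluorescein ester substrate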
# [23] = target: T5, Fatty acid synthase; experiment: inhibition of human FAS-TE enzyme activity – biochemical, endpoint fluorescence intensity, uHTS hits, dose response (AID 624327); assay type: functional;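 further: fluorescence from hydrolysis of an O-methyl fluorescein acyl ester substrate by the enzyme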
# [24] = target: Nonstructural protein 1 (Influenza A virus, UniProt Q194T2); assay type: functional, Influenza A virus (A/California/07/2009(H1N1))
# Sequence of Nonstructural protein 1 (Q194T2 whole entry): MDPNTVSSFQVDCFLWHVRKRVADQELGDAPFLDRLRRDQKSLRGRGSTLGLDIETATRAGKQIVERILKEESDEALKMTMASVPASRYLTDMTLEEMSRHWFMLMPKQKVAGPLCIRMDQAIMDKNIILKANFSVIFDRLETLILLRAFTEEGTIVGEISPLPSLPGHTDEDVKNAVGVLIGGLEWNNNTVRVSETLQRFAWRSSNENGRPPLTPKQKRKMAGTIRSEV
# Sequence of Cytochrome P450 3A4 (P08684 whole entry): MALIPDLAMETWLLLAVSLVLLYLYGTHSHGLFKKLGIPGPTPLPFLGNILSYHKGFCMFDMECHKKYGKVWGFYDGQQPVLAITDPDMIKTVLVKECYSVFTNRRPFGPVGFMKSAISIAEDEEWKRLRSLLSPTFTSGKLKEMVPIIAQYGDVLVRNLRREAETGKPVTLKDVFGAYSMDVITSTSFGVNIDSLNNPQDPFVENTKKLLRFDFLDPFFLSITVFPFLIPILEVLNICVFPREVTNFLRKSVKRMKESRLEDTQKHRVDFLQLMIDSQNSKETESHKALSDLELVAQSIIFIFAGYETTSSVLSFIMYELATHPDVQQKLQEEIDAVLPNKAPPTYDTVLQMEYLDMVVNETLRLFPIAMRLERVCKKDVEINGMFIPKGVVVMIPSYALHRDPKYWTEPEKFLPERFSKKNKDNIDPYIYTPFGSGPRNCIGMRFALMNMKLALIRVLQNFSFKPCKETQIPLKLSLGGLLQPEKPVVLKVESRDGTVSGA
# Sequence of Genome polyprotein (P29990 2492-3391 limits assumed): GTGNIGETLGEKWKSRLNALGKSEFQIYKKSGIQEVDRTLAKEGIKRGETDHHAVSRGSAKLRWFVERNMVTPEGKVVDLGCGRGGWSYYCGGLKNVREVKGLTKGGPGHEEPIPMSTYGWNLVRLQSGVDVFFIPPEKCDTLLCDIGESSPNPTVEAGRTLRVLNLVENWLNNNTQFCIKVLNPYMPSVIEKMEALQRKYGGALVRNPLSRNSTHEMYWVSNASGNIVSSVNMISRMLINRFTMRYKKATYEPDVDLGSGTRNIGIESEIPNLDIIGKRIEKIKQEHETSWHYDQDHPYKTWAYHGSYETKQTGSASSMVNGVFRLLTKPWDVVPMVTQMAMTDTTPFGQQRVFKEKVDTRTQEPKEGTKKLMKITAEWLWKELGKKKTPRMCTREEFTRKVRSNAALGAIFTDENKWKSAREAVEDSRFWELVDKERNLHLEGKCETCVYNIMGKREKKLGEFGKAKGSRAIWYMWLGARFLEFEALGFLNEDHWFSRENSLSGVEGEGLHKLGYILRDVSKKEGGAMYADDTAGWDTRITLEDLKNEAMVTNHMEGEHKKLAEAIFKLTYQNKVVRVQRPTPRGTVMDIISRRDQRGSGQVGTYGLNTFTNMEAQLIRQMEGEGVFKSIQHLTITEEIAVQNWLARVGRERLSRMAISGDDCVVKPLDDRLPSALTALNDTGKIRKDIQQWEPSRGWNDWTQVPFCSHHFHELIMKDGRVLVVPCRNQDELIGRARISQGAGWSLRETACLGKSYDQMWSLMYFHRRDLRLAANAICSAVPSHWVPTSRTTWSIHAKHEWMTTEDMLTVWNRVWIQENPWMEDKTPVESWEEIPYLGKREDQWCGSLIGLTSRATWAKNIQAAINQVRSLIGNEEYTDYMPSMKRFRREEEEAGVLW
# T5 sequence (P49327 whole entry): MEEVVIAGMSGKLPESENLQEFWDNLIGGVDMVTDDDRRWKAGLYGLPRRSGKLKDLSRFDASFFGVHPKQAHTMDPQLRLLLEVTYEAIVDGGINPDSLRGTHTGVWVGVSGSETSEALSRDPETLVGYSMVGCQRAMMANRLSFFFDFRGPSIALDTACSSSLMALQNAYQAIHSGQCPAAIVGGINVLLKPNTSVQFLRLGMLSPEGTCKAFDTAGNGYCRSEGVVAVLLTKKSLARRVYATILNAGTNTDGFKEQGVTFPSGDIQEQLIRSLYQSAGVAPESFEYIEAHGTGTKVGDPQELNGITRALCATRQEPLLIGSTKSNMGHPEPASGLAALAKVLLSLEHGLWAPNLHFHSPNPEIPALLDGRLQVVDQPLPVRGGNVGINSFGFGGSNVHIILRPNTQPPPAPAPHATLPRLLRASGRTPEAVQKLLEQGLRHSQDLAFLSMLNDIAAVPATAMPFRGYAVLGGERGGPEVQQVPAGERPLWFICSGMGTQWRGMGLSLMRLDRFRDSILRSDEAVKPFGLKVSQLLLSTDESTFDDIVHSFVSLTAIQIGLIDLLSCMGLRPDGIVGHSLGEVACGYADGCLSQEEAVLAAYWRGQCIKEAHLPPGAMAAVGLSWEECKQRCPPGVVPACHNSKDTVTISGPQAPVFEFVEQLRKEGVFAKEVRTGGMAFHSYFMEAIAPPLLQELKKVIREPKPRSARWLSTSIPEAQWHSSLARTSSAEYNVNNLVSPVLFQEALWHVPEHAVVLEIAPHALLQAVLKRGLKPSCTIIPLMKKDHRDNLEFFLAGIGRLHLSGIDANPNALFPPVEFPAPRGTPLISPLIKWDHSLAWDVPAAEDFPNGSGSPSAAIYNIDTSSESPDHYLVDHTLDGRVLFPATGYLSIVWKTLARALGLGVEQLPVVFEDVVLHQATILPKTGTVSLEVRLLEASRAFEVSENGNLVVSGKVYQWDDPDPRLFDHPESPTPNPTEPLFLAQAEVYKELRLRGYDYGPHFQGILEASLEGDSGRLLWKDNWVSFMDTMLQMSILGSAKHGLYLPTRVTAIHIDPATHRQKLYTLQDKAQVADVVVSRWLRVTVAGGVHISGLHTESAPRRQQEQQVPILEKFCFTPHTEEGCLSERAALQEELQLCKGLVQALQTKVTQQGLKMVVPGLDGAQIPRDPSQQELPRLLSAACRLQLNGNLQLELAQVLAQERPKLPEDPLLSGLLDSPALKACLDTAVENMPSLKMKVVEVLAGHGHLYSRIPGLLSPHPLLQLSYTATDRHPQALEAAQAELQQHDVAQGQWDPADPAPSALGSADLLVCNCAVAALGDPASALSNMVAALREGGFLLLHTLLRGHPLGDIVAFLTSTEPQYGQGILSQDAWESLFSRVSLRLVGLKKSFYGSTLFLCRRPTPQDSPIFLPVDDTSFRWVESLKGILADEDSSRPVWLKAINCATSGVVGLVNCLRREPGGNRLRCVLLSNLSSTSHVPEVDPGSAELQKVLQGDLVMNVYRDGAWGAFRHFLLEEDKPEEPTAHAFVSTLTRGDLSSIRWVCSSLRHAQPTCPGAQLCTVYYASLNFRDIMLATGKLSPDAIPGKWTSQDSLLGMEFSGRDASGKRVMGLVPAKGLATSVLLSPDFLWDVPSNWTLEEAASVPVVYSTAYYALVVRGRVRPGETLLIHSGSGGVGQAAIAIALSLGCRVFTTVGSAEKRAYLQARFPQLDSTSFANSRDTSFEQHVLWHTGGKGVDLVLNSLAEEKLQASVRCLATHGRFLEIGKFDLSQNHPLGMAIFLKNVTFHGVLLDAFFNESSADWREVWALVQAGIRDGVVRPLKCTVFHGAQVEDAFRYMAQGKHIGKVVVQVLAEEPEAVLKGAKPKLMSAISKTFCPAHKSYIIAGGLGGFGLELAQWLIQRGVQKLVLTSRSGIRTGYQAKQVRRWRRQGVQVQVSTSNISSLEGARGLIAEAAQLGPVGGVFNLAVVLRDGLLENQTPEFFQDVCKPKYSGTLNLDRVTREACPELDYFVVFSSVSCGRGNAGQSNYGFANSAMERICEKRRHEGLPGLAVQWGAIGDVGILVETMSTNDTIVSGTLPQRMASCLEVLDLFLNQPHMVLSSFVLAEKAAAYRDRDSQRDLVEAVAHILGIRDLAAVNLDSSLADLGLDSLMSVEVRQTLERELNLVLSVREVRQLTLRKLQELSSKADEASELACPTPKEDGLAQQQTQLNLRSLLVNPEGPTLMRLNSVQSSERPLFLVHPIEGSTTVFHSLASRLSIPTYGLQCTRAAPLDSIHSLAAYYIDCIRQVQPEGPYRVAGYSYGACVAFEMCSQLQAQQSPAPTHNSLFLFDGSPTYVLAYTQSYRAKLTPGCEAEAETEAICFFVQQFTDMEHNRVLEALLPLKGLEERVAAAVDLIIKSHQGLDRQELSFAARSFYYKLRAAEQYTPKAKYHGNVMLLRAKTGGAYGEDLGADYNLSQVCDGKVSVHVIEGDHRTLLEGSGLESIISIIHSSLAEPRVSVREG
compound,measurement,setting,value
CC1(C)Cc2c(cnn2-c2ccccc2)-c2c1c1ccccc1n2CC(O)CCl (centres undefined),EC50,[1],8.41 µM (active)
same,EC50,[2],> 150 µM (not active)
same,CC50,[3],> 40 µM (active)
same,EC50,[4],13.7 µM (active)
Cc1ccc(/C=C2\SC(NS(=O)(=O)c3cccs3)=NC2=O)cc1,IC50,[5],33.1 µM (active)
same,IC50,[6],71.5 µM (active)
Cc1ccc(-n2cc(CN3CCN(Cc4nccn4C)CC3)c(-c3cccc(C)c3)n2)cc1,IC50,[7],10.5 µM (active)
CCc1ccc2nc(N(CCCN(C)C)C(=O)c3ccc(S(=O)(=O)N4CCCc5ccccc54)cc3)sc2c1,CC50,[8],12.7 µM (active)
same,CC50,[3],13.8 µM (active)
same,EC50,[9],187 nM (active)
same,AC50,[10],6.44 µM (active)
same,EC50,[11],9.15 µM (active)
CCCn1c(C)nc2c(N(CCOC)CCOC)nc(C)nc21,AC50,[12],15.8 µM (inconclusive)
Cc1cc(NS(=O)(=O)c2ccc(NC(=O)CSc3nc(O)c4c(C)c(C)sc4n3)cc2)no1,IC50,[5],35.8 µM (active)
same,IC50,[6],81.9 µM (active)
COCCNC(=O)C1(CC(C)C)C=CCN1C(=O)c1ccccc1 (centres undefined),AC50,[12],20 µM (inconclusive)
Cc1cccc(C(=O)NC2CCN(C(=S)NCc3ccco3)CC2)c1,IC50,[5],113 µM (active)
O=C(NC1CCN(C(=S)NCc2ccco2)CC1)c1cccc(F)c1,IC50,[5],79.9 µM (active)
CCCOc1ccc(C(CC(=O)O)NC(=O)c2sc3ccccc3c2Cl)cc1 (centres undefined),IC50,[7],7.59 µM (active)
CCCc1cc(O)nc(SCC(=O)Nc2cc3c(cc2C(C)=O)OCO3)n1,IC50,[13],> 100 µM (active)
O=C(CN1C(=O)S/C(=C\c2cccc(Cl)c2)C1=O)NCCCn1ccnc1,IC50,[7],20.9 µM (active)
Cc1ccccc1N(CC(=O)NC(C)(C)C)C(=O)C[S+]([O-])CC(=O)Nc1ccc2c(c1)OCO2 (centres undefined),IC50,[5],79.3 µM (active)
Oc1ccc2c(c1)OCO2,AC50,[12],15.8 µM (inconclusive)
CC1(c2ccc3noc(-c4ccccc4)c3c2)OCCO1,IC50,[13],> 100 µM (active)
Cc1ccc(Cl)cc1N1CCN(Cc2nc(O)c3sccc3n2)CC1,CC50,[3],> 40 µM (active)
CCNC(=O)CC1C(=O)N(c2ccc(C)cc2)C(=O)N1CCc1ccc(OC)c(OC)c1 (centres undefined),IC50,[13],> 100 µM (active)
COc1cc2c(cc1N)-c1ccc(N)cc1C2,IC50,[14],10.7 µM (active)
same,IC50,[13],> 100 µM (active)
Oc1ccccc1/C=N/Nc1ncc(Br)cn1,CC50,[15],> 20 µM (active)
same,IC50,[16],7.9 µM (active)
same,CC50,[17],6.62 µM (active)
same,AC50,[18],2.77 µM (active)
same,EC50,[19],23 µM (active)
same,EC50,[20],7.46 µM (active)
same,CC50,[21],3.26 µM (active)
O=C(Cn1cnc([N+](=O)[O-])n1)N/N=C/c1cc(Cl)ccc1O,IC50,[5],13.3 µM (active)
same,IC50,[22],2.94 µM (active)
same,IC50,[23],1.22 µM (active)
same,EC50,[19],> 350 µM (not active)
same,IC50,[24],12.3 µM (active)
same,EC50,[20],14.5 µM (active)
CCOC(=O)C(Cc1ccc(O)cc1)NC(C)=O (centres undefined) [ACETYL TYROSINE ETHYL ESTER],AC50,[12],25.1 µM (inconclusive)
COc1c2c(c(CC=C(C)C)c3oc(=O)c(-c4ccc(O)cc4)c(O)c13)OC(C)(C)C=C2 [LONCHOCARPIC ACID],AC50,[12],12.6 µM (inconclusive)
CC(C)(C)CC(C)(C)c1ccc(OCCO)cc1 [TRITON X],AC50,[12],31.6 µM (inconclusive)
